Reference: article PMC6614494, “Molecular and Biochemical Characterization of a Bimodular Xylanase From Marinifilaceae Bacterium Strain SPP2” (Frontiers in Microbiology, 2019)

Molecular target: T1, XynSPP2 (Labilibaculum antarcticum, UniProt A0A1Y1CHM8)
T1 construct: gene ALGA_1465; residues 25-450, signal peptide (24 residues) removed, Fn3 + GH10 domains; 34-residue N-terminal pET-28a tag kept; E. coli BL21(DE3)
Test: TLC of hydrolysis products
Assay type: biochemical
Settings: 20 uM substrate, citrate-phosphate pH 6.5

T1 sequence (A0A1Y1CHM8 entry or part of it): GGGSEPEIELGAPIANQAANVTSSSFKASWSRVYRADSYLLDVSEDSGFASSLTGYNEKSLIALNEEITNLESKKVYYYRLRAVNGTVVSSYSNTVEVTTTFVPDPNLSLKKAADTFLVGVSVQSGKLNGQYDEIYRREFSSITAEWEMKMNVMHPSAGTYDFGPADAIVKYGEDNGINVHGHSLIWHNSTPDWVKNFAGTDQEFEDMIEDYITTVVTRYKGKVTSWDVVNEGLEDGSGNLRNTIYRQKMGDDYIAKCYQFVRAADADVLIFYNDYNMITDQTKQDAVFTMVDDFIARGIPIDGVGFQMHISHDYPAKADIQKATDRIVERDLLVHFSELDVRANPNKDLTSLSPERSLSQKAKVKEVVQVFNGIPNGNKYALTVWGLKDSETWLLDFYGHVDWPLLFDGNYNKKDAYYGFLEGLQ

Row | SMILES | TLC of hydrolysis products
1 | OC1OC[C@@H](O[C@@H]2OC[C@@H](O[C@@H]3OC[C@@H](O[C@@H]4OC[C@@H](O)[C@H](O)[C@H]4O)[C@H](O)[C@H]3O)[C@H](O)[C@H]2O)[C@H](O)[C@H]1O (some centres unmarked) [X4, xylotetraose] | XynSPP2 hydrolyzed xylotetraose to xylotriose (major) and xylobiose
2 | OC1OC[C@@H](O[C@@H]2OC[C@@H](O[C@@H]3OC[C@@H](O[C@@H]4OC[C@@H](O[C@@H]5OC[C@@H](O)[C@H](O)[C@H]5O)[C@H](O)[C@H]4O)[C@H](O)[C@H]3O)[C@H](O)[C@H]2O)[C@H](O)[C@H]1O (some centres unmarked) [X5, xylopentaose] | Degradations of xylopentaose and xylohexaose by XynSPP2 were largely similar
